Test results: US11426420B2, “Inhibitors of short-chain dehydrogenase activity for treating coronary disorders” (CASE WESTERN RESERVE UNIVERSITY, priority 2017, dated 2022)

What was measured:
mice = assay: toxicity after IP injection into mice
[1] = stability on incubation with rat liver extracts; type: in vitro ADME
[2] = stability on incubation with human liver extracts; type: in vitro ADME
[3] = chemical stability in aqueous solutions; type: physicochemical; conditions: over broad pH range
recombinant 15-PGDH = biological target: T1, recombinant 15-PGDH (Homo sapiens, UniProt P15428); assay: inhibition of recombinant 15-PGDH; type: biochemical
T1 sequence (P15428 1-266): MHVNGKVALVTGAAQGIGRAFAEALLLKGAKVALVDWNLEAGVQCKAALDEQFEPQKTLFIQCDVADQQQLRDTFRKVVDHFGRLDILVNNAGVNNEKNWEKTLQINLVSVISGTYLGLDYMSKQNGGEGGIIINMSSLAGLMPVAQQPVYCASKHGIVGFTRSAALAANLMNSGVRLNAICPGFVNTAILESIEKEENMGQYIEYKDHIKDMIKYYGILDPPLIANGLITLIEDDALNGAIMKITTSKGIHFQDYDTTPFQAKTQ

[4] = stability on incubation with mouse liver extracts; type: in vitro ADME
[5] = system: PGE2 production by cell lines; assay: PGE2 production by cell lines; type: cell-based
cardiac 15-PGDH = biological target: T2, cardiac 15-PGDH (Mus musculus, UniProt Q8VCC1); assay: cardiac 15-PGDH activity and cardiac PGE2 after oral dosing of mice; type: in vivo
T2 construct: from tissue; host or cells: mouse heart (male C57bl6J mice are named for the study design)
T2 sequence (Q8VCC1 1-269): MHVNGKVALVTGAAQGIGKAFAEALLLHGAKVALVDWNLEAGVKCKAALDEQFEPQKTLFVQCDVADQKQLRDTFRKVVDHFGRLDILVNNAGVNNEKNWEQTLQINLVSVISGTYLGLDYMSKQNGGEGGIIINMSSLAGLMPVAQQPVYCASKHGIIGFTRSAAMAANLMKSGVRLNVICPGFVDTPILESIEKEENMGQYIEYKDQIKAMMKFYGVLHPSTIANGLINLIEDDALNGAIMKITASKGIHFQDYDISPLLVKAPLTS

[6] = system: doxorubicin induced cardiomyopathy; assay: doxorubicin induced cardiomyopathy in mice, one cycle (Set A), echocardiography; type: in vivo, male C57bl6J mice
Experimental: FIG. 1 illustrates schematically the design of a study in which male C57bl6J mice received 15 mpk cumulative dose of doxorubicin in 7 doses of 2.15 mpk administered daily over study days 1-7. A 15-PGDH inhibitor, (+) SW033291, was administered by oral gavage at a dose of 25 mpk twice daily over study days 1-14, as a solution in a vehicle of 10% ethanol and 90% soybean oil. Cardiac ejection fraction was determined by echocardiography on study days 14 and 28.
FIG. 2 illustrates a graph showing cardiac ejection fraction at study day 1, at the start of the experiment, at study day 14 and at study day 28. Black bars show measurement in control mice receiving either oral saline or oral vehicle. Blue bars show results in doxorubicin treated mice receiving oral vehicle. Red bars show results in doxorubicin treated mice also receiving (+) SW033291. Doxorubicin treated mice receiving oral vehicle (blue bars) show a 10% decrease in ejection fraction on day 14 and day 28 as compared to non-doxorubicin treated control mice receiving vehicle only for 14 days. In contrast, mice treated with both doxorubicin and (+) SW033291 only a 2% (day 14) or 1.5% (day 28) decrease in ejection fraction. The difference in ejection fraction in doxorubicin treated mice receiving or not receiving (+) SW033291 was statiscally significant (P<0.05) on both days 14 and 28.

[7] = system: doxorubicin induced cardiomyopathy; assay: doxorubicin induced cardiomyopathy in mice, 2 consecutive cycles of doxorubicin (Set B); type: in vivo
[8] = stability on incubation with hepatocyte extracts; type: in vitro ADME
[9] = stability on incubation with hepatocyte cell lines; type: in vitro ADME
cardiac myocytes = assay: DNA damage in cardiac myocytes, gamma-H2AX immunostaining; type: in vivo; conditions: doxorubicin treated mice
[10] = day 42, after two cycles of doxorubicin, versus vehicle control

With CCCC[S+]([O-])c1sc2nc(-c3nccs3)cc(-c3cnc(C)n3C)c2c1N (stereo not shown) [formula (X)] the “immediate toxicity over 24 hours” value (mice; IP into mice at 50 mg/kg body weight) was “no immediate toxicity”, the “chemical stability when incubated with liver extracts” value [1] was “chemically stable” and the “chemical stability when incubated with liver extracts” value [2] was “chemically stable”. For the same compound, the “chemical stability in aqueous solutions” value [3] was “chemically stable”, the “concentration at which recombinant 15-PGDH is inhibited” value (recombinant 15-PGDH) was 3 nM and the “chemical stability when incubated with liver extracts” value [4] was “chemically stable”. For the same compound, the “concentration at which PGE2 production by cell lines is increased” value [5] was 20 nM.
With CCCC[S+]([O-])c1sc2nc(-c3cccs3)cc(-c3ccccc3)c2c1N (single isomer, unassigned; (+)) [(+) SW033291] the “inhibition of activity of cardiac 15-PGDH” value (cardiac 15-PGDH; 25 mpk oral, starting at 30 minutes, persisting for 3 hours after administration) was “approximately 80%”, the “cardiac PGE2” value (cardiac 15-PGDH; 6 hours after drug treatment) was “increased cardiac PGE2” and the “ejection fraction (EF %), extended follow-up” value ([6]; Set A, follow-up to day 56) was “maintenance of improvement in ejection fraction”. For the same compound, the “decrease in ejection fraction” value ([6]; day 14, doxorubicin treated mice, 25 mpk oral gavage twice daily days 1-14) was 2%, the “decrease in ejection fraction” value ([6]; day 28, doxorubicin treated mice, 25 mpk oral gavage twice daily days 1-14) was 1.5% and the “prevention of doxorubicin induced cardiomyopathy” value ([6]; mice) was “prevented doxorubicin induced cardiomyopathy”. For the same compound, the “cardiac contractility, echocardiogram” value ([6]; study day 14, doxorubicin treated mice, versus oral vehicle) was “markedly greater cardiac contractility”, the ejection fraction ([7]; day 14, following the first cycle of doxorubicin) was “improvement of ejection fraction” and the “atrial natriuretic factor, real-time PCR in cardiac tissue” value [7, 10] was “lower levels of atrial natriuretic factor”. The “expression of connective tissue growth factor, real-time PCR in cardiac tissue” value [7, 10] was “lower levels of expression of connective tissue growth factor”, the lung weight [7, 10] was “lesser lung weight” and the ventricular weight [7, 10] was “lesser ventricular weight”. For the same compound, the total body weight ([7]; day 42, after two cycles of doxorubicin, versus vehicle treated mice) was “greater total body weight” and the ejection fraction ([7]; day 42, following the second cycle of doxorubicin) was “improvement of ejection fraction”.
For CCCC[S+]([O-])c1sc2nc(-c3cccs3)cc(-c3ccccc3)c2c1N (stereo not shown) [formula (IX)], the “chemical stability when incubated with hepatocyte extracts” value [8] was “chemically stable”, the toxicity (mice; IP into mice at 0.3 μmole/per mouse twice daily for 21 days) was “no toxicity” and the “immediate toxicity over 24 hours” value (mice; IP into mice at 0.6 μmole/per mouse) was “no immediate toxicity”. For the same compound, the “immediate toxicity over 24 hours” value (mice; IP into mice at 1.2 μmole/per mouse) was “no immediate toxicity”, the “chemical stability in aqueous solutions” value [3] was “chemically stable” and the “chemical stability when incubated with hepatocyte cell lines” value [9] was “chemically stable”. For the same compound, the “PGE2 production by cell lines” value [5] was “increase PGE2 production”.
With COc1cccc2c1C(=O)c1c(O)c3c(c(O)c1C2=O)C[C@@](O)(C(=O)CO)C[C@@H]3O[C@H]1C[C@H](N)[C@H](O)[C@H](C)O1 [doxorubicin, reference compound] the “DNA damage in cardiac myocytes, gamma-H2AX immunostaining” value (cardiac myocytes) was “induction of DNA damage”, the “decrease in ejection fraction” value ([6]; day 14, doxorubicin 15 mpk cumulative plus oral vehicle, compared to non-doxorubicin treated control mice) was 10% and the “decrease in ejection fraction” value ([6]; day 28, doxorubicin 15 mpk cumulative plus oral vehicle, compared to non-doxorubicin treated control mice) was 10%.
